For 17 compounds, EC50 and inhibition in vivo results are on record in patent US6156762A, “Indolomorphinan derivative and agent for curing and preventing cerebral disorder” (Toray Industries, Inc., priority 1997, dated 2000).

Experiment [1] relates to cultured nerve cells. The experiment can be described thus: Action of protecting cultured nerve cells from glutamic acid toxicity (LDH leakage). It counts as cell-based, Wistar rat. As to conditions: rat fetal cerebral cortex cells, 10 mM glutamic acid, 24 hours, read-out: ED50 (the source's name). From the text: It is known that when the blood flow to the brain is temporarily clogged due to cerebral ischemia, hypoxia, or an trauma, delayed cerebral neuronal death is induced [Document: Brain Research, Vol. 239, 57 (1982)]. A possible cause of such damage of the cerebral nerve cells is excitatory toxicity due to an excitatory neutotransmitter such as glutamic acid or the like, which is excessively released with ischemia [Document: Trends in Neuroscience, vol. 10, 299 (1987)]. […] This is a problem to be solved by the invention. This action was evaluated by using the in vitro evaluation system which will be described below.
A fetus was taken from the abdomen of a Wistar female rat on the 18 to 19th day of pregnancy under aseptic conditions, and the head of the fetus was opened to extract the brain. The brain was placed in an ice-cooled L-15 medium, and the cerebral cortex was separated under a microscope. The cerebral cortexes of about 30 rats were cut into pieces, and then suspended in 10 ml of a 0.25% trypsin solution and 0.2 ml of a 0.01% DNase solution, followed by culture at 37° C. for 30 minutes. Then, 2 ml of serum was added to the solution, and immediately the resultant mixture was centrifuged at 120 rpm for 2 minutes to separate the precipitates. To the precipitates was added 7 ml of a DF medium (a medium obtained by adding 20 nM of transferrin, 5 μg/ml of insulin, 20 nM of progesterone,60 nM of selenite, 50 U/ml of penicillin, and 50 U/ml of streptomycin to a mixture equivalent amounts of Dulbecco modified Eagle medium and F-12 medium), followed by 20 pipetting operations using a 10-ml plastic pipette to obtain a cell suspension. The cell suspension was filtered with nylon mesh (pore diameter 43 μm) to fractionate isolated cells. The thus-obtained isolated cells were diluted with a DF medium to a concentration of 6.0×10^5 cells/ml, and 500 μl of the diluted cells was inoculated in each of the 48 wells of a 48-well culture plate precoated with polylysine, followed by culture at 37° C. for 1 day in the presence of 5% of CO2. On the 2nd day, the medium was changed to a new DF medium, and 10 μl of a solution of 0.5M glutamic acid in distilled water was added to each of the wells (the final glutamic acid concentration was 10 mM), followed by further culture at 37° C. for 24 hours in the presence 5% of CO2. A test compound was dissolved in distilled water, 10% or 100% DMSO or 10% methanol, and 5 μl of the solution was added to each of the wells immediately before glutamic acid was added. As an index of nerve cell damage, the enzyme activity of lactic acid dehydrogenase (LDH) leaking from the damaged cells into the medium was measured. For each of the test compounds, the LDH leakage was measured at each of concentrations to determine a dose-response curve by the modified Cochran-Armitige method. The 50% effective dose (ED50) of each of the test compounds we determined from the curve.

Experiment [2] has as its system middle cerebral artery ischemia model of rat. The experiment is described as follows: Infarction inhibiting action in middle cerebral artery ischemia (MCAo-recirculation) model of rat. Format: in vivo. The settings on record: ip, 24 h, 3 mg/kg i.p. 10 minutes before occlusion and 1 hour after recirculation, infarction volume one day after, vs control group, read-out: Rate of inhibition of infarction. From the text:
It is also known that, in this way, in the acute stage of cerebral infarction, the lesion proceeds to the peripheral tissue from the core of infarction, and death of the nerve cells is extended with the passage of several days. This possible not only extends and creates grave aftereffects, and causes loss of motor and mental function, but also finally critically influences on the life. As an in vivo experimental model of cerebral infarction which is capable of precisely evaluating the clinical effect of a medicine in conformity with clinical conditions of the disease of a patient of cerebral infarction, the middle cerebral artery occlusion (MCAo)-recirculation model comprising an embolus with a yarn using Wister rates may be used [Document: Japan Journal of Stroke, vol. 8, 1 (1986)]. […] This action was evaluated by applying the MCAo model by the method which will be described below.
In rats of 10 weeks old, after etherization, a median incision of the cervical region was made up to the right carotid artery bifurcation under 1.0% halothane anesthetization with care to preserve the vagus nerves. The common carotid artery and the external carotid artery were separated from the periphery connective tissue with the right carotid artery bifurcation as the center, and each of the arteries was ligated by a 6-0 silk yarn (Eto yarn). Further, a yarn was wound on the internal carotid artery origin in preparation for ligation and fixing after insertion of the embolus. Next, the common carotid artery was incised, and the embolus was inserted from the common carotid artery to the internal carotid artery by about 15 to 16 mm, and ligated and fixed to the internal carotid artery by the silk yarn at the end thereof near the nylon yarn. In this operation, the end of the embolus was inserted into the anterior cerebral artery by about 1 to 2 mm beyond the middle cerebral artery bifurcation, and the inlet of the middle cerebral artery was occluded by the body (resin part) of the embolus for 1 hours. In recirculation, the embolus with a yarn was removed to recirculate the blood flow to the middle cerebral artery. 3 mg/kg of each of test compounds was intraperitoneally administered 10 minutes before occlusion and 1 hour after recirculation of the blood flow. One day after occlusion and recirculation, the whole body was perfused with physiologic saline through the heart, and the brain was extracted. The extracted brain was cooled with ice and water for 5 minutes, and cut at intervals of 2.0 mm to form 7 sections of the cerebral coronal surface. Each of the sections was stained with TTC (Triphenyltetrazolium Chloride), and fixed by a 5% neutral buffer formalin solution. In each of the sections, the infarction area in the right cerebral hemisphere was measured by an image analyzer (Olympus), and the infarction was evaluated by volume (mm^3). The infarction volume was compared with the infarction volume of a control group to calculate the rate of inhibition of infarction.

In the case of `Oc1ccc2c3c1O[C@H]1c4c(c5ccc6ccccc6c5n4Cc4ccccc4)C[C@@]4(O)[C@@H](C2)N(CC2CC2)CC[C@]314` [Compound 69, 17-cyclopropylmethyl-3,14β-dihydroxy-6,7-dehydro-4,5α-epoxy-6,7,2',3'-(1'-benzyl-6',7'-benzoindolo)morphinan], the EC50 in experiment [1] came out at 9.3 nM. Besides, the inhibition in vivo at 3 mg/kg in experiment [2] was found to be 69%.

Turning to `COc1ccc2c3c1O[C@H]1c4[nH]c5c(ccc6ccccc65)c4C[C@@]4(O)[C@@H](C2)N(CC2CC2)CC[C@]314` [Compound 17, 17-cyclopropylmethyl-3-methoxy-14β-hydroxy-6,7-dehydro-4,5α-epoxy-6,7,2',3'-(6',7'-benzoindolo)morphinan], the EC50 in experiment [1] worked out at 120 nM. Moreover, the inhibition in vivo at 3 mg/kg in experiment [2] amounted to 56%. In the case of `O=C(NCCCn1c2c(c3ccc4ccccc4c31)C[C@@]1(O)[C@H]3Cc4ccc(O)c5c4[C@@]1(CCN3CC1CC1)[C@H]2O5)c1cccnc1` [Compound 66, 17-cyclopropylmethyl-3,14β-dihydroxy-6,7-dehydro-4,5α-epoxy-6,7,2',3'-[1'-(3-nicotinamidopropyl)-6',7'-benzoindolo]morphinan], the EC50 in experiment [1] was found to be 400 nM. Besides, in experiment [2], the inhibition in vivo at 3 mg/kg came out at 25%. Consider `Oc1ccc2c3c1O[C@H]1c4c(c5cc6c7c(cccc7c5n4Cc4ccccc4)-c4ccccc4-6)C[C@@]4(O)[C@@H](C2)N(CC2CC2)CC[C@]314` [Compound 79, 17-cyclopropylmethyl-3,14β-dihydroxy-6,7-dehydro-4,5α-epoxy-6,7,2',3'-(1'-benzyl-5',6"-benzeno-6',7'-benzoindolo)morphinan], for which the EC50 in experiment [1] was 190 nM. In experiment [2], the inhibition in vivo at 3 mg/kg was 26%.

For the compound `Oc1ccc2c3c1O[C@H]1c4[nH]c5c(cc6c7c(cccc75)-c5ccccc5-6)c4C[C@@]4(O)[C@@H](C2)N(CC2CC2)CC[C@]314` [Compound 19, 17-cyclopropylmethyl-3,14β-dihydroxy-6,7-dehydro-4,5α-epoxy-6,7,2',3'-(5',6"-benzeno-6',7'-benzoindolo)morphinan], in experiment [1], the EC50 was 200 nM. Further, in experiment [2], the inhibition in vivo at 3 mg/kg was 29%. Regarding `CCCCCCCc1cccc2[nH]c3c(c12)C[C@@]1(O)[C@H]2Cc4ccc(O)c5c4[C@@]1(CCN2CC1CC1)[C@H]3O5` [Compound 6, 17-cyclopropylmethyl-3,14β-dihydroxy-6,7-dehydro-4,5α-epoxy-6,7,2',3'-(4'-heptylindolo)morphinan], the EC50 in experiment [1] was 400 nM. Also, the inhibition in vivo at 3 mg/kg in experiment [2] worked out at 33%. Regarding `Cn1c2c(c3ccc4ccccc4c31)C[C@@]1(O)[C@H]3Cc4ccc(O)c5c4[C@@]1(CCN3CC1CC1)[C@H]2O5` [Compound 72, 17-cyclopropylmethyl-3,14β-dihydroxy-6,7-dehydro-4,5α-epoxy-6,7,2',3'-(1'-methyl-6',7'-benzoindolo)morphinan], in experiment [1], the EC50 was found to be 26 nM. In addition, the inhibition in vivo at 3 mg/kg in experiment [2] came to 85%. For `O=C(CCCCCc1ccccc1)NCCCn1c2c(c3ccccc31)C[C@@]1(O)[C@H]3Cc4ccc(O)c5c4[C@@]1(CCN3CC1CC1)[C@H]2O5` [Compound 62, 17-cyclopropylmethyl-3,14β-dihydroxy-6,7-dehydro-4,5α-epoxy-6,7,2',3'-[1'-[3-(6-phenylhexanoamido)propyl]indolo]morphinan], in experiment [2], the inhibition in vivo at 3 mg/kg came out at 10%.

In the case of `O=C(NCCCn1c2c(c3ccccc31)C[C@@]1(O)[C@H]3Cc4ccc(O)c5c4[C@@]1(CCN3CC1CC1)[C@H]2O5)c1ccccc1` [Compound 61, 17-cyclopropylmethyl-3,14β-dihydroxy-6,7-dehydro-4,5α-epoxy-6,7,2',3'-[1'-(3-benzamidopropyl)indolo]morphinan], the EC50 in experiment [1] turned out to be 140 nM. In addition, the inhibition in vivo at 3 mg/kg in experiment [2] came out at 29%. Taken in the same sequence, the figures for `Oc1ccc2c3c1O[C@H]1c4[nH]c5c(cc(F)c6ccccc65)c4C[C@@]4(O)[C@@H](C2)N(CC2CC2)CC[C@]314` [Compound 14, 17-cyclopropylmethyl-3,14β-dihydroxy-6,7-dehydro-4,5α-epoxy-6,7,2',3'-(5'-fluoro-6',7'-benzoindolo)morphinan] were 86 nM and 29%. As to `Oc1ccc2c3c1O[C@H]1c4[nH]c5c6c(ccc5c4C[C@@]4(O)[C@@H](C2)N(CC2CC2)CC[C@]314)-c1ccccc1C6` [Compound 20, 17-cyclopropylmethyl-3,14β-dihydroxy-6,7-dehydro-4,5α-epoxy-6,7,2',3'-(6',7',3",2"-indenoindolo)morphinan], in experiment [1], the EC50 was 27 nM. Moreover, the inhibition in vivo at 3 mg/kg in experiment [2] is 10%. For `COc1ccc2c3c1O[C@H]1c4[nH]c5ccc(C(C)(C)C)cc5c4C[C@@]4(O)[C@@H](C2)N(CC2CC2)CC[C@]314` [Compound 16, 17-cyclopropylmethyl-3-methoxy-14β-hydroxy-6,7-dehydro-4,5α-epoxy-6,7,2',3'-(5'-t-butylindolo)morphinan], the inhibition in vivo at 3 mg/kg in experiment [2] is 22%.

For `CN1CC[C@]23c4c5ccc(O)c4O[C@H]2c2[nH]c4c(ccc6ccccc64)c2C[C@@]3(O)[C@H]1C5` [Compound 74, 17-methyl-3,14β-dihydroxy-6,7-dehydro-4,5α-epoxy-6,7,2',3'-(6',7'-benzoindolo)morphinan], in experiment [2], the inhibition in vivo at 3 mg/kg came to 27%. The same measure, in the same setting: the value for `Oc1ccc2c3c1O[C@H]1c4[nH]c5ccccc5c4C[C@@]4(O)[C@@H](C2)N(CC2CC2)CC[C@]314` [Compound 1, 17-cyclopropylmethyl-3,14β-dihydroxy-6,7-dehydro-4,5α-epoxy-6,7,2',3'-indolomorphinan] was 23%; that for `Oc1ccc2c3c1O[C@H]1c4[nH]c5c(ccc6ccccc65)c4C[C@@]4(O)[C@@H](C2)N(CC2CCC2)CC[C@]314` [Compound 76, 17-cyclobutylmethyl-3,14β-dihydroxy-6,7-dehydro-4,5α-epoxy-6,7,2',3'-(6',7'-benzoindolo)morphinan] was 65%; that for `CS(=O)(=O)n1c2c(c3ccc4ccccc4c31)C[C@@]1(O)[C@H]3Cc4ccc(O)c5c4[C@@]1(CCN3CC1CC1)[C@H]2O5` [Compound 78, 17-cyclopropylmethyl-3,14β-dihydroxy-6,7-dehydro-4,5α-epoxy-6,7,2',3'-(1'-methylsulfonyl 6',7'-benzoindolo)morphinan] was 55%.

For the compound `Oc1ccc2c3c1O[C@H]1c4[nH]c5c6ccccc6c6ccccc6c5c4C[C@@]4(O)[C@@H](C2)N(CC2CC2)CC[C@]314` [Compound 23, 17-cyclopropylmethyl-3,14β-dihydroxy-6,7-dehydro-4,5α-epoxy-6,7,2',3'-(4',5',6',7'-debenzoindolo)morphinan], the inhibition in vivo at 3 mg/kg in experiment [2] was determined as 79%.
